Laboratory results taken from patent publication US20230285405A1, “Pharmaceuticals for Treating or Preventing Nidoviruses and Picornaviruses” (priority 2020, published 2023).
Structures can show the parent of a compound that is named as a salt. Where two headings read alike, the source gives them in different places.

Legend:
OC43 = assay: Drug screening: OC43 nucleoprotein staining in infected A549-mRuby cells; format: cell-based, human beta coronavirus OC43; details: for activity at 10 µM: Betacoronavirus 1, OC43, 96 h
Method in brief: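 A549 cells expressing H2B-mRuby infected with OC43 at MOI 0.3 for 1 h at 33° C, then drugs added at 10 μM final and incubated 4 days at 33° C. Viral nucleoprotein immunostained and imaged; intensity normalized to cell number and no-drug controls (=100). Hits reduced staining >3 SD in both repeats without toxicity.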

A549-mRuby cells = assay: Drug screening: effect on cell growth (cell number day 4 / day 0); details: 10 μM drug; for Growth_1: number of cells at day 4 divided by number of cells at day 0 / toxic_1: repeat #1; for Growth_2: number of cells at day 4 divided by number of cells at day 0 / toxic_2: repeat #2
Method in brief: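 A549 cells carrying an H2B-mRuby reporter were infected with OC43 at MOI 0.3 for 1 h at 33° C, then given drug at 10 μM final. Cell numbers were counted by imaging at day 0 and again at day 4 after 4 days at 33° C, 5% CO2, with the screen run twice.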

[1] = 10 μM drug, MOI 0.3, 4 days, OC43 staining normalized to no-drug controls, mean of the two screen repeats, read-out: OC43_mean
[2] = 10 μM drug, MOI 0.3, 4 days, normalized to no-drug controls in the same plate, repeat #1, read-out: OC43_1: % staining of OC43 in screen repeat #1
[3] = 10 μM drug, MOI 0.3, 4 days, normalized to no-drug controls in the same plate, repeat #2, read-out: OC43_2: % staining of OC43 in screen repeat #2
[4] = 10 μM drug, MOI 0.3, 4 days, OC43 staining normalized to no-drug controls, mean of the two screen repeats
[5] = 10 μM drug, MOI 0.3, 4 days, normalized to no-drug controls in the same plate, repeat #1
[6] = 10 μM drug, MOI 0.3, 4 days, normalized to no-drug controls in the same plate, repeat #2

| Compound | hit_1 (OC43; 10 μM drug, repeat #1) | hit_2 (OC43; 10 μM drug, repeat #2) | activity at 10 µM (OC43; [1]) | activity at 10 µM (OC43; [2]) | activity at 10 µM (OC43; [3]) | Growth_1: number of cells at day 4 divided by number of cells at day 0 (A549-mRuby cells) | toxic_1 (A549-mRuby cells) | Growth_2: number of cells at day 4 divided by number of cells at day 0 (A549-mRuby cells) | toxic_2 (A549-mRuby cells) | OC43_mean (OC43; [4]) | OC43_1: % staining of OC43 in screen repeat #1 (OC43; [5]) | OC43_2: % staining of OC43 in screen repeat #2 (OC43; [6]) | activity at 10 µM (OC43; read-out: OC43_mean) | activity at 10 µM (OC43; read-out: OC43_mean, 10 μM drug, MOI 0.3, 4 days, OC43 staining normalized to no-drug controls, mean of the two screen repeats) | hit_1 (OC43) | hit_2 (OC43) | activity at 10 µM (OC43; read-out: OC43_1: % staining of OC43 in screen repeat #1) | activity at 10 µM (OC43; read-out: OC43_2: % staining of OC43 in screen repeat #2) |
| --- | --- | --- | --- | --- | --- | --- | --- | --- | --- | --- | --- | --- | --- | --- | --- | --- | --- | --- |
| CN1CCCCC1CCN1c2ccccc2Sc2ccc([S+](C)[O-])cc21 (stereo not drawn) [Mesoridazine Besylate] | 1 | 1 | 20.3% | 15.6% | 25% | 4.7 | 0 | 4.7 | 0 | – | – | – | – | – | – | – | – | – |
| C[C@@H]1[C@H](O)[C@@H](C)/C=C/C=C/CC/C=C/C=C/C=C/C=C/C(O[C@H]2O[C@H](C)[C@@H](O)[C@H](N)[C@@H]2O)CC2O[C@](O)(CC(O)C(O)CCC(O)CC(O)CC(O)CC(=O)O[C@H]1C)CC(O)C2C(=O)O (stereo partly drawn) [Nystatin (Fungicidin), Nystatin] | 1 | 1 | – | – | – | 4.6 | 0 | 5.9 | 0 | 23.3% | 27.8% | 18.8% | – | – | – | – | – | – |
| Cc1ccccc1C(OCCN(C)C)c1ccccc1 (stereo not drawn) [Orphenadrine Hydrochloride] | 1 | 1 | 37.6% | 11.7% | 63.6% | 4.6 | 0 | 5.1 | 0 | – | – | – | – | – | – | – | – | – |
| OCCN1CCN(CCCN2c3ccccc3Sc3ccc(Cl)cc32)CC1 [Perphenazine] | 1 | 1 | 42.8% | 59.8% | 25.8% | 2.2 | 0 | 2.5 | 0 | – | – | – | – | – | – | – | – | – |
| CN1CCN(CCCN2c3ccccc3Sc3ccc(Cl)cc32)CC1 [Prochlorperazine Dimaleate] | 1 | 1 | 22.6% | 20.2% | 25% | 3.1 | 0 | 3.0 | 0 | – | – | – | – | – | – | – | – | – |
| CN(C)CCCN1c2ccccc2Sc2ccccc21 [Promazine hydrochloride] | 1 | 1 | 23% | 23.4% | 22.6% | 4.7 | 0 | 4.7 | 0 | – | – | – | – | – | – | – | – | – |
| CC(CN1c2ccccc2Sc2ccccc21)N(C)C (stereo not drawn) [Promethazine HCl] | 1 | 1 | 24.4% | 19.4% | 29.5% | 3.0 | 0 | 2.4 | 0 | – | – | – | – | – | – | – | – | – |
| CCCOC(C(=O)OC1CCN(C)CC1)(c1ccccc1)c1ccccc1 [Propiverine hydrochloride] | 1 | 1 | 27.3% | 29.5% | 25.2% | 3.0 | 0 | 2.2 | 0 | – | – | – | – | – | – | – | – | – |
| CC(C)NCC(O)COc1cccc2ccccc12 (stereo not drawn) [Propranolol HCl] | 1 | 1 | – | 21.6% | 27.7% | 5.6 | 0 | 4.1 | 0 | – | – | – | 24.7% | – | – | – | – | – |
| CCCc1cc(=O)[nH]c(=S)[nH]1 [Propylthiouracil] | 1 | 1 | – | 44.3% | 55.1% | 3.7 | 0 | 4.2 | 0 | – | – | – | – | 49.7% | – | – | – | – |
| OCCOCCN1CCN(C2=Nc3ccccc3Sc3ccccc32)CC1 [Quetiapine Fumarate] | – | – | – | – | – | 3.6 | 0 | 3.7 | 0 | – | – | – | 48% | – | 1 | 1 | 34.5% | 61.5% |
| CO[C@H]1/C=C/O[C@@]2(C)Oc3c(C)c(O)c4c(c3C2=O)C2=NC3(CCN(CC(C)C)CC3)NC2=C(NC(=O)/C(C)=C\C=C\[C@H](C)[C@H](O)[C@@H](C)[C@@H](O)[C@@H](C)[C@H](OC(C)=O)[C@@H]1C)C4=O [Rifabutin] | 1 | 1 | 41.1% | 25.8% | 56.4% | 5.5 | 0 | 5.3 | 0 | – | – | – | – | – | – | – | – | – |
| CC(N)C12CC3CC(CC(C3)C1)C2 (stereo not drawn) [Rimantadine Hydrochloride] | 1 | 1 | 52.6% | 50.6% | 54.6% | 4.4 | 0 | 5.1 | 0 | – | – | – | – | – | – | – | – | – |
| CC[C@H]1OC(=O)[C@H](C)[C@@H](O[C@H]2C[C@@](C)(OC)[C@@H](O)[C@H](C)O2)[C@H](C)[C@@H](O[C@@H]2O[C@H](C)C[C@H](N(C)C)[C@H]2O)[C@](C)(O)C[C@@H](C)/C(=N\OCOCCOC)[C@H](C)[C@@H](O)[C@]1(C)O [Roxithromycin] | 1 | 1 | 41.4% | 55.8% | 27.1% | 5.2 | 0 | 5.6 | 0 | – | – | – | – | – | – | – | – | – |
| OCc1cc(C(O)CNCCCCCCOCCCCc2ccccc2)ccc1O (stereo not drawn) [Salmeterol Xinafoate] | 1 | 1 | – | 39.3% | 20.4% | 2.9 | 0 | 2.5 | 0 | – | – | – | 29.9% | – | – | – | – | – |
| CN1CCN(CCOc2cc(OC3CCOCC3)c3c(Nc4c(Cl)ccc5c4OCO5)ncnc3c2)CC1 [Saracatinib (AZD0530), Saracatinib] | 1 | 1 | 22.7% | 21.2% | 24.1% | 3.1 | 0 | 4.0 | 0 | – | – | – | – | – | – | – | – | – |
| COc1cccc(CCc2ccccc2OCC(CN(C)C)OC(=O)CCC(=O)O)c1 (stereo not drawn) [Sarpogrelate hydrochloride] | 1 | 1 | 25.9% | 26.8% | 24.9% | 5.0 | 0 | 5.4 | 0 | – | – | – | – | – | – | – | – | – |
| O=C(O[C@H]1CN2CCC1CC2)N1CCc2ccccc2[C@@H]1c1ccccc1 [Solifenacin] | 1 | 1 | 25% | 20.4% | 29.6% | 4.3 | 0 | 3.4 | 0 | – | – | – | – | – | – | – | – | – |
| CN1CCC(COc2cnc(-c3cccc(Cn4nc(-c5cccc(C#N)c5)ccc4=O)c3)nc2)CC1 [Tepotinib (EMD 1214063), Tepotinib] | 1 | 1 | 28.9% | 15.3% | 42.6% | 5.3 | 0 | 5.2 | 0 | – | – | – | – | – | – | – | – | – |
| C[C@@H]1CCN(C(=O)CC#N)C[C@@H]1N(C)c1ncnc2[nH]ccc12.O=C(O)CC(O)(CC(=O)O)C(=O)O [Tofacitinib (CP-690550) Citrate] | 1 | 1 | – | – | – | 4.8 | 0 | 4.7 | 0 | 58.5% | 56.5% | 60.4% | – | – | – | – | – | – |
